Measurements published in patent US20210198256A1, “COMPOUNDS FOR THE DEGRADATION OF BRD9 OR MTH1” (C4 Therapeutics, Inc., priority 2018, published 2021).

Tested on: SMART-CAR_MTH1-WT (Jurkat.2 cells)
Experiment: HTFC Assay (HTFC DC50)
Format: cell-based, human
Conditions: Jurkat.2 (SMART-CAR_MTH1-WT) cells, 4 hours at 37° C., FITC anti-HA staining, flow cytometry
Experimental: FITC anti-HA.11 epitope tag antibody (Biolegend #901507) FITC Mouse IgG1 k isotope control antibody (Biolegend #400108)
Dry dispense 10 nL/well of compound+90 […] into 96-well V-bottom plates: 4 compounds/plate in 11-point dose response in biological duplicates. Column 12 as DMSO controls.
• 1. Plate Jurkat.2 (SMART-CAR_MTH1-WT) cells with Combi on top of dry dispensed compound: 500,000 cells/mL, 100 uL/well • 2. Incubate for 4 hours at 37° C. • 3. Fixation, permeabilization, and staining: • a. Centrifuge at 1500 rpm for 7 minutes, remove supernatant. • b. Add 100 μl of Fixation/Permeabilization Solution, seal plates, vortex, pulse spin, and incubate at 4° C. for 30 minutes. • c. Centrifuge at 1500 rpm for 7 minutes, remove supernatant. • d. Dilute BD Perm/Wash Buffer to 1× with milliQ water. • e. Wash with 200 uL of BD Perm/Wash Buffer, seal plates, vortex. • f. Centrifuge at 1500 rpm for 7 minutes, remove supernatant. • g. Wash with 200 uL of BD Perm/Wash Buffer, seal plates, vortex. (Option to stop, store at 4° C. if needed) • h. Centrifuge at 1500 rpm for 7 minutes, remove supernatant. • i. Add 50 uL BD Perm/Wash Buffer containing 1:1000 of HA-FITC (Well A12:D12) or IgG-FITC (Well F12:H12) directly conjugated antibody, seal plates, vortex, pulse spin, and incubate at 4° C. for 1 hour. • j. Centrifuge at 1500 rpm for 7 minutes, remove supernatant. • k. Wash with 200 uL of BD Perm/Wash Buffer, seal plates, vortex. • 4. Centrifuge at 1500 rpm for 7 minutes, remove supernatant. • a. Resuspend in 200 ul of BD Perm/Wash Buffer. (Option to stop, store at 4° C. if needed)
• 1. Use analysis from template HTFC file. • 2. Export statistics by going to Tools>Group stats, save as a .csv file with the plate barcode as the name. • 3. Remove all columns from this file except for “Well”, “Sample ID”, “Date”, and “HA+.Mean.Y Mean for HA+ gated by P01.cells”. • 4. Create a New DB Analysis in Scinamic using the “HTFC-Cell Pharm” template. • 5. Load Incyte file “barcode”.csv. • 6. Load Echo file with the generated Echo report (P:\LabData\Echo\Project\SMARTCAR\Echo Report\Labcyte Echo Dose-Response) • 7. Edit Platemap.xlsx with the plate barcodes. • 8. Load Plate Map with this file. • 9. Cleanup compound Ids, mask control outliers, and assign curves.
Using the above assay the HTFC DC50 data was determined for the compounds in Table 2 below.
Example 6: HiBit and HTFC DC50 Data for Representative Compounds of the Present Invention

Row | SMILES | DC50 [nM]
1 | CNC(=O)c1cnc2ccc(-c3ccc(OCCCCNC(=O)CNc4cccc5c4C(=O)N(C4CCC(=O)NC4=O)C5=O)nc3)cc2c1Nc1ccccc1 (centres unmarked) [Compound 369, 4-anilino-6-[6-[4-[[2-[[2-(2,6-dioxo-3-piperidyl)-1,3-dioxo-isoindolin-4-yl]amino]acetyl]amino]butoxy]-3-pyridyl]-N-methyl-quinoline-3-carboxamide] | < 100
2 | CNC(=O)c1cnc2cc(OC)c(OCC3CCN(C(=O)CCCNC(=O)CNc4cccc5c4C(=O)N(C4CCC(=O)NC4=O)C5=O)CC3)cc2c1Nc1ccccc1 (centres unmarked) [Compound 370, 6-((1-(4-(2-((2-(2,6-dioxopiperidin-3-yl)-1,3-dioxoisoindolin-4-yl)amino)acetamido)butanoyl)piperidin-4-yl)methoxy)-7-methoxy-N-methyl-4-(phenylamino)quinoline-3-carboxamide] | < 100
3 | CNC(=O)c1cnc2cc(OC)c(OCC3CCN(CCCCNC(=O)CNc4cccc5c4C(=O)N(C4CCC(=O)NC4=O)C5=O)CC3)cc2c1Nc1ccccc1 (centres unmarked) [Compound 371, 6-((1-(4-(2-((2-(2,6-dioxopiperidin-3-yl)-1,3-dioxoisoindolin-4-yl)amino)acetamido)butyl)piperidin-4-yl)methoxy)-7-methoxy-N-methyl-4-(phenylamino)quinoline-3-carboxamide] | < 100
4 | COc1cc2ncc(C(=O)NC(C)(C)C)c(Nc3ccccc3)c2cc1-c1ccc(C(=O)NCCCCn2cc(CNc3cccc4c3C(=O)N(C3CCC(=O)NC3=O)C4=O)nn2)nc1 (centres unmarked) [Compound 373, N-(tert-butyl)-6-(6-((4-(4-(((2-(2,6-dioxopiperidin-3-yl)-1,3-dioxoisoindolin-4-yl)amino)methyl)-1H-1,2,3-triazol-1-yl)butyl)carbamoyl)pyridin-3-yl)-7-methoxy-4-(phenylamino)quinoline-3-carboxamide] | < 100
5 | CNC(=O)c1cnc2cc(OC)c(-c3cnc(C(=O)NCCCCn4cc(CNc5cccc6c5C(=O)N(C5CCC(=O)NC5=O)C6=O)nn4)cn3)cc2c1Nc1ccccc1 (centres unmarked) [Compound 380, 6-(5-((4-(4-(((2-(2,6-dioxopiperidin-3-yl)-1,3-dioxoisoindolin-4-yl)amino)methyl)-1H-1,2,3-triazol-1-yl)butyl)carbamoyl)pyrazin-2-yl)-7-methoxy-N-methyl-4-(phenylamino)quinoline-3-carboxamide] | < 100
6 | CNC(=O)c1cnc2ccc(NCCCCCCCCCCNC(=O)COc3cccc4c3C(=O)N(C3CCC(=O)NC3=O)C4=O)cc2c1NC1CC1 (centres unmarked) [Compound 460, 4-(cyclopropylamino)-6-((10-(2-((2-(2,6-dioxopiperidin-3-yl)-1,3-dioxoisoindolin-4-yl)oxy)acetamido)decyl)amino)-N-methylquinoline-3-carboxamide] | < 100

Second part, the compound after the results:

Row | DC50 [nM] | SMILES
7 | < 100 | CNC(=O)c1cnc2ccc(C(=O)NCC(=O)N3CCN(C(=O)CNc4cccc5c4C(=O)N(C4CCC(=O)NC4=O)C5=O)CC3)cc2c1Nc1ccccc1 (centres unmarked) [Compound 348, 4-anilino-N6-[2-[4-[2-[[2-(2,6-dioxo-3-piperidyl)-1,3-dioxo-isoindolin-4-yl]amino]acetyl]piperazin-1-yl]-2-oxo-ethyl]-N3-methyl-quinoline-3,6-dicarboxamide]
8 | < 100 | CNC(=O)c1cnc2ccc(-c3ccc(C(=O)NCCCCNC(=O)CNc4cccc5c4C(=O)N(C4CCC(=O)NC4=O)C5=O)c(F)c3)cc2c1Nc1ccccc1 (centres unmarked) [Compound 350, 4-anilino-6-[4-[4-[[2-[[2-(2,6-dioxo-3-piperidyl)-1,3-dioxo-isoindolin-4-yl]amino]acetyl]amino]butylcarbamoyl]-3-fluoro-phenyl]-N-methyl-quinoline-3-carboxamide]
9 | < 100 | CNC(=O)c1cnc2ccc(-c3ccn(CCCCCCNC(=O)COc4cccc5c4C(=O)N(C4CCC(=O)NC4=O)C5=O)n3)cc2c1Nc1ccccc1 (centres unmarked) [Compound 361, 4-anilino-6-[1-[6-[[2-[2-(2,6-dioxo-3-piperidyl)-1,3-dioxo-isoindolin-4-yl]oxyacetyl]amino]hexyl]pyrazol-3-yl]-N-methyl-quinoline-3-carboxamide]
10 | < 100 | CNC(=O)c1cnc2ccc(-c3ccc(C(=O)NCCCN4CCC(Nc5cccc6c5C(=O)N(C5CCC(=O)NC5=O)C6=O)CC4)cc3)cc2c1Nc1ccccc1 (centres unmarked) [Compound 366, 4-anilino-6-[4-[3-[4-[[2-(2,6-dioxo-3-piperidyl)-1,3-dioxo-isoindolin-4-yl]amino]-1-piperidyl]propylcarbamoyl]phenyl]-N-methyl-quinoline-3-carboxamide]
11 | < 100 | CNC(=O)c1cnc2cc(OC)c(-c3ccc(C(=O)NCCCCNC(=O)C(C)Nc4cccc5c4C(=O)N(C4CCC(=O)NC4=O)C5=O)c(F)c3)cc2c1Nc1ccccc1 (centres unmarked) [Compound 367, 6-(4-((4-(2-((2-(2,6-dioxopiperidin-3-yl)-1,3-dioxoisoindolin-4-yl)amino)propanamido)butyl)carbamoyl)-3-fluorophenyl)-7-methoxy-N-methyl-4-(phenylamino)quinoline-3-carboxamide]
